Test system: human adult primary fibroblast cells
Assay: Proliferative analysis (population doubling, cell counts per passage) under standard and oxidative stress conditions
Format: cell-based
Experimental: Analysis of cellular proliferation rate and telomere length in cultures of human adult primary fibroblast cells treated with lutein under standard and oxidative stress conditions. Primary cultures of adult human fibroblast were established. Cells are seeded at 2×10^3 cells/cm2 in GlutaMax™ high glucose Dulbecco's modified Eagle's medium (DMEM, Gibco®), and supplemented with 10% fetal bovine serum (FBS, HyClone, Thermo Scientific), penicillin (100 U/ml) and reptomycin (1000 U/ml). Media is renewed every 2-3 days and cells passaged at sub-confluence (70-80%) every 4-5 days. Compounds or vehicle control are added to the cells in culture. Cell growth is monitored for each condition by counting cell numbers at each passage using a Countess™ cell counter (Invitrogen). Population doubling (PD) was calculated with the formula PD=(log (Nn/Nn-1))/log 2 where n is the passage; and N the number of cells. One PD is equivalent to one round of cell replication. Eight independent condition were evaluated by proliferative Analysis: Standard cell culture condition+Lutein−10 μg/ml (LUT10) Standard cell culture condition+Lutein−5 μg/ml (LUT5) Standard cell culture condition+Lutein−1 μg/ml (LUT1) Standard cell culture condition+Lutein−10 μg/ml+10 μM H2O2 (LUT10+H2O2) Standard cell culture condition+Lutein−5 μg/ml+10 μM H2O2(LUT5+H2O2) Standard cell culture condition+Lutein−1 μg/ml+10 μM H2O2 (LUT1+H2O2) Cells were expanded during eight weeks under standard and oxidative (10 μM H2O2) cell culture condition as described previously. Fresh treatments were prepared and added to the cells at every passage and also when media was renewed. Stock solution of 10 mg/ml of the compound was prepared in DMSO and the different treatments were prepared from that stock.

[1] = Lutein 1 μg/ml + 10 μM H2O2, week 1 (P1)
[2] = Lutein 1 μg/ml + 10 μM H2O2, week 2 (P2)
[3] = Lutein 1 μg/ml + 10 μM H2O2, week 3 (P3)
[4] = Lutein 1 μg/ml + 10 μM H2O2, week 4 (P4)
[5] = Lutein 1 μg/ml + 10 μM H2O2, week 5 (P5)
[6] = Lutein 1 μg/ml + 10 μM H2O2, week 6 (P6)
[7] = Lutein 1 μg/ml + 10 μM H2O2, week 7 (P7)
[8] = Lutein 1 μg/ml + 10 μM H2O2, week 8 (P8)
[9] = Lutein 1 μg/ml, standard culture, week 1 (P1)
[10] = Lutein 1 μg/ml, standard culture, week 2 (P2)
[11] = Lutein 1 μg/ml, standard culture, week 3 (P3)
[12] = Lutein 1 μg/ml, standard culture, week 4 (P4)
[13] = Lutein 1 μg/ml, standard culture, week 5 (P5)
[14] = Lutein 1 μg/ml, standard culture, week 6 (P6)
[15] = Lutein 1 μg/ml, standard culture, week 7 (P7)
[16] = Lutein 1 μg/ml, standard culture, week 8 (P8)
[17] = Lutein 5 μg/ml + 10 μM H2O2, week 1 (P1)
[18] = Lutein 5 μg/ml + 10 μM H2O2, week 2 (P2)
[19] = Lutein 5 μg/ml + 10 μM H2O2, week 3 (P3)
[20] = Lutein 5 μg/ml + 10 μM H2O2, week 4 (P4)
[21] = Lutein 5 μg/ml + 10 μM H2O2, week 5 (P5)
[22] = Lutein 5 μg/ml + 10 μM H2O2, week 6 (P6)
[23] = Lutein 5 μg/ml + 10 μM H2O2, week 7 (P7)
[24] = Lutein 5 μg/ml + 10 μM H2O2, week 8 (P8)
[25] = Lutein 5 μg/ml, standard culture, week 1 (P1)
[26] = Lutein 5 μg/ml, standard culture, week 2 (P2)
[27] = Lutein 5 μg/ml, standard culture, week 3 (P3)
[28] = Lutein 5 μg/ml, standard culture, week 4 (P4)
[29] = Lutein 5 μg/ml, standard culture, week 5 (P5)
[30] = Lutein 5 μg/ml, standard culture, week 6 (P6)
[31] = Lutein 5 μg/ml, standard culture, week 7 (P7)
[32] = Lutein 5 μg/ml, standard culture, week 8 (P8)
[33] = Lutein 10 μg/ml + 10 μM H2O2, week 1 (P1)
[34] = Lutein 10 μg/ml + 10 μM H2O2, week 2 (P2)
[35] = Lutein 10 μg/ml + 10 μM H2O2, week 3 (P3)
[36] = Lutein 10 μg/ml + 10 μM H2O2, week 4 (P4)
[37] = Lutein 10 μg/ml + 10 μM H2O2, week 5 (P5)
[38] = Lutein 10 μg/ml + 10 μM H2O2, week 6 (P6)
[39] = Lutein 10 μg/ml + 10 μM H2O2, week 7 (P7)
[40] = Lutein 10 μg/ml + 10 μM H2O2, week 8 (P8)
[41] = Lutein 10 μg/ml, standard culture, week 1 (P1)
[42] = Lutein 10 μg/ml, standard culture, week 2 (P2)
[43] = Lutein 10 μg/ml, standard culture, week 3 (P3)
[44] = Lutein 10 μg/ml, standard culture, week 4 (P4)
[45] = Lutein 10 μg/ml, standard culture, week 5 (P5)
[46] = Lutein 10 μg/ml, standard culture, week 6 (P6)
[47] = Lutein 10 μg/ml, standard culture, week 7 (P7)
[48] = Lutein 10 μg/ml, standard culture, week 8 (P8)

## CC1=C[C@H](O)CC(C)(C)[C@H]1/C=C/C(C)=C/C=C/C(C)=C/C=C/C=C(C)/C=C/C=C(C)/C=C/C1=C(C)C[C@@H](O)CC1(C)C [Lutein]
[1]
  Cumulative Population Doubling per passage: 3.42
  Population Doubling per passage: 3.42
  Total number of cells per passage: 1.60E+06
[2]
  Cumulative Population Doubling per passage: 6.29
  Population Doubling per passage: 2.87
  Total number of cells per passage: 1.17E+07
[3]
  Cumulative Population Doubling per passage: 9.16
  Population Doubling per passage: 2.37
  Total number of cells per passage: 8.60E+07
Lutein 1 μg/ml + 10 μM H2O2, week 4
  Cumulative Population Doubling (Table 7A): 12.3
[4]
  Cumulative Population Doubling per passage: 12.28
  Population Doubling per passage: 3.12
  Total number of cells per passage: 7.46E+08
[5]
  Cumulative Population Doubling per passage: 14.76
  Population Doubling per passage: 2.49
  Total number of cells per passage: 4.18E+09
[6]
  Cumulative Population Doubling per passage: 17.41
  Population Doubling per passage: 2.65
  Total number of cells per passage: 2.62E+10
[7]
  Cumulative Population Doubling per passage: 18.41
  Population Doubling per passage: 1.00
  Total number of cells per passage: 5.23E+10
Lutein 1 μg/ml + 10 μM H2O2, week 8
  Cumulative Population Doubling (Table 7A): 20.7
[8]
  Cumulative Population Doubling per passage: 20.72
  Population Doubling per passage: 2.30
  Total number of cells per passage: 2.58E+11
[9]
  Cumulative Population Doubling per passage: 3.81
  Population Doubling per passage: 3.81
  Total number of cells per passage: 2.10E+06
[10]
  Cumulative Population Doubling per passage: 7.31
  Population Doubling per passage: 3.50
  Total number of cells per passage: 2.38E+07
[11]
  Cumulative Population Doubling per passage: 10.18
  Population Doubling per passage: 3.57
  Total number of cells per passage: 1.75E+08
Lutein 1 μg/ml, standard culture, week 4
  Cumulative Population Doubling (Table 7A): 13.7
[12]
  Cumulative Population Doubling per passage: 13.69
  Population Doubling per passage: 3.50
  Total number of cells per passage: 1.98E+09
[13]
  Cumulative Population Doubling per passage: 15.71
  Population Doubling per passage: 2.02
  Total number of cells per passage: 8.04E+09
[14]
  Cumulative Population Doubling per passage: 18.71
  Population Doubling per passage: 3.00
  Total number of cells per passage: 6.44E+10
[15]
  Cumulative Population Doubling per passage: 21.39
  Population Doubling per passage: 2.68
  Total number of cells per passage: 4.12E+11
Lutein 1 μg/ml, standard culture, week 8
  Cumulative Population Doubling (Table 7A): 24.1
[16]
  Cumulative Population Doubling per passage: 24.13
  Population Doubling per passage: 2.74
  Total number of cells per passage: 2.75E+12
[17]
  Cumulative Population Doubling per passage: 3.58
  Population Doubling per passage: 3.58
  Total number of cells per passage: 1.80E+06
[18]
  Cumulative Population Doubling per passage: 6.91
  Population Doubling per passage: 3.32
  Total number of cells per passage: 1.80E+07
[19]
  Cumulative Population Doubling per passage: 10.13
  Population Doubling per passage: 3.22
  Total number of cells per passage: 1.68E+08
Lutein 5 μg/ml + 10 μM H2O2, week 4
  Cumulative Population Doubling (Table 7A): 13.5
[20]
  Cumulative Population Doubling per passage: 13.54
  Population Doubling per passage: 3.42
  Total number of cells per passage: 1.79E+09
[21]
  Cumulative Population Doubling per passage: 15.70
  Population Doubling per passage: 2.16
  Total number of cells per passage: 8.00E+09
[22]
  Cumulative Population Doubling per passage: 17.84
  Population Doubling per passage: 2.14
  Total number of cells per passage: 3.52E+10
[23]
  Cumulative Population Doubling per passage: 20.71
  Population Doubling per passage: 2.87
  Total number of cells per passage: 2.58E+11
Lutein 5 μg/ml + 10 μM H2O2, week 8
  Cumulative Population Doubling (Table 7A): 23.1
[24]
  Cumulative Population Doubling per passage: 23.06
  Population Doubling per passage: 2.34
  Total number of cells per passage: 1.31E+12
[25]
  Cumulative Population Doubling per passage: 3.81
  Population Doubling per passage: 3.81
  Total number of cells per passage: 2.10E+06
[26]
  Cumulative Population Doubling per passage: 6.47
  Population Doubling per passage: 2.65
  Total number of cells per passage: 1.33E+07
[27]
  Cumulative Population Doubling per passage: 9.12
  Population Doubling per passage: 2.65
  Total number of cells per passage: 8.33E+07
Lutein 5 μg/ml, standard culture, week 4
  Cumulative Population Doubling (Table 7A): 12.5
[28]
  Cumulative Population Doubling per passage: 12.53
  Population Doubling per passage: 3.42
  Total number of cells per passage: 8.89E+09
[29]
  Cumulative Population Doubling per passage: 15.02
  Population Doubling per passage: 2.49
  Total number of cells per passage: 4.98E+09
[30]
  Cumulative Population Doubling per passage: 16.47
  Population Doubling per passage: 1.45
  Total number of cells per passage: 1.36E+10
[31]
  Cumulative Population Doubling per passage: 18.15
  Population Doubling per passage: 1.68
  Total number of cells per passage: 4.35E+10
Lutein 5 μg/ml, standard culture, week 8
  Cumulative Population Doubling (Table 7A): 21.3
[32]
  Cumulative Population Doubling per passage: 21.26
  Population Doubling per passage: 3.12
  Total number of cells per passage: 3.77E+11
[33]
  Cumulative Population Doubling per passage: 3.50
  Population Doubling per passage: 3.50
  Total number of cells per passage: 1.70E+06
[34]
  Cumulative Population Doubling per passage: 6.92
  Population Doubling per passage: 3.42
  Total number of cells per passage: 1.81E+07
[35]
  Cumulative Population Doubling per passage: 9.65
  Population Doubling per passage: 2.74
  Total number of cells per passage: 1.21E+08
Lutein 10 μg/ml + 10 μM H2O2, week 4
  Cumulative Population Doubling (Table 7A): 13.1
[36]
  Cumulative Population Doubling per passage: 13.07
  Population Doubling per passage: 3.42
  Total number of cells per passage: 1.29E+09
[37]
  Cumulative Population Doubling per passage: 14.97
  Population Doubling per passage: 1.90
  Total number of cells per passage: 4.81E+09
[38]
  Cumulative Population Doubling per passage: 16.97
  Population Doubling per passage: 2.00
  Total number of cells per passage: 1.93E+09
[39]
  Cumulative Population Doubling per passage: 18.52
  Population Doubling per passage: 1.55
  Total number of cells per passage: 5.65E+10
Lutein 10 μg/ml + 10 μM H2O2, week 8
  Cumulative Population Doubling (Table 7A): 20.8
[40]
  Cumulative Population Doubling per passage: 20.83
  Population Doubling per passage: 2.30
  Total number of cells per passage: 2.79E+11
[41]
  Cumulative Population Doubling per passage: 3.58
  Population Doubling per passage: 3.58
  Total number of cells per passage: 1.80E+06
[42]
  Cumulative Population Doubling per passage: 6.70
  Population Doubling per passage: 3.12
  Total number of cells per passage: 1.56E+07
[43]
  Cumulative Population Doubling per passage: 9.82
  Population Doubling per passage: 3.12
  Total number of cells per passage: 1.35E+08
Lutein 10 μg/ml, standard culture, week 4
  Cumulative Population Doubling (Table 7A): 13.3
[44]
  Cumulative Population Doubling per passage: 13.32
  Population Doubling per passage: 3.50
  Total number of cells per passage: 1.53E+09
[45]
  Cumulative Population Doubling per passage: 15.75
  Population Doubling per passage: 2.43
  Total number of cells per passage: 8.27E+09
[46]
  Cumulative Population Doubling per passage: 18.49
  Population Doubling per passage: 2.74
  Total number of cells per passage: 5.52E+10
[47]
  Cumulative Population Doubling per passage: 21.18
  Population Doubling per passage: 2.69
  Total number of cells per passage: 3.57E+11
Lutein 10 μg/ml, standard culture, week 8
  Cumulative Population Doubling (Table 7A): 23.9
[48]
  Cumulative Population Doubling per passage: 23.92
  Population Doubling per passage: 2.74
  Total number of cells per passage: 2.38E+12
Lutein 10, 5 and 1 μg/ml + 10 μM H2O2 (oxidative culture conditions), after eight weeks
  Proliferation rate compared to control group (H2O2): increase in proliferation rate
Lutein 10, 5 and 1 μg/ml, standard culture conditions, after eight weeks
  Proliferation rate compared to control (Ctrl): no difference

— patent publication US20220175693A1, “DIETARY SUPPLEMENT COMPRISING LUTEIN FOR TELOMERE PROTECTION, AND METHOD FOR PRODUCTION THEREOF” (BIOGEN EXTRACTS PRIVATE LIMITED, priority 2019, published 2022)
